Measured values from ChEMBL document CHEMBL1143274, “Potent and selective inhibitors of Helicobacter pylori glutamate racemase (MurI): pyridodiazepine amines” (Bioorg Med Chem Lett, 2009).
In brackets after ≈: the same amount, converted by molar mass.

Experiments:
Liver microsomes = experiment: Metabolic stability in human liver microsomes assessed as intrinsic clearance; format: ADME, Microsome; parameters: unit not given here
Helicobacter pylori = experiment: Antimicrobial activity against Helicobacter pylori SS1 by NCCLS method; format: functional
[1] = Protein binding in mouse plasma; format: ADME, cell-free; conditions: read-out: PPB (converted)
Glutamate racemase = target: T1, Glutamate racemase (Helicobacter pylori J99, UniProt Q9ZLT0); experiment: Inhibition of MurI in wild type Helicobacter pylori J99
T1 sequence (Q9ZLT0 whole entry): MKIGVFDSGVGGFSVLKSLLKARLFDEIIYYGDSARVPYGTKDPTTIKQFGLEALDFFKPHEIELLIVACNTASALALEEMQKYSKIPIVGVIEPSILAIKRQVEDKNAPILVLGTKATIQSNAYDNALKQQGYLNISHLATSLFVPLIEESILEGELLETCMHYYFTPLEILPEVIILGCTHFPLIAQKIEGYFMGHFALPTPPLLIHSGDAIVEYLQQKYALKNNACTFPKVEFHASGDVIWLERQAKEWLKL

[2] = Metabolic stability in mouse liver microsomes assessed as intrinsic clearance; format: ADME, Microsome; parameters: unit not given here

| Compound | CL (Liver microsomes) | MIC (Helicobacter pylori) | fraction unbound [1] | IC50 (Glutamate racemase) | CL [2] |
| --- | --- | --- | --- | --- | --- |
| CNC1=Nc2ncccc2C(c2ccco2)=NC1c1cc(C#CC(C)O)cs1 (centres undefined) | 7 | 4 µg/mL (≈ 10.2 µM) | 0.091 | 4.9 µM | 17 |
| NC1=Nc2ccccc2C(c2ccccc2)=NC1c1cccs1 (centres undefined) | > 100 | 32 µg/mL (≈ 101 µM) | 0.02 | 400 µM | > 100 |
| CNC1=Nc2c(ccc[n+]2[O-])C(c2ccccc2)=NC1c1cccs1 (centres undefined) | < 14 | 16 µg/mL (≈ 45.9 µM) | 0.353 | 67 µM | 41 |
| c1ccc(C2=NC(c3cccs3)C(N3CCCC3)=Nc3ccccc32)cc1 (centres undefined) | 43 | 8 µg/mL (≈ 21.5 µM) |  | 4 µM | 87 |
| CNC1=Nc2ncccc2C(c2ccns2)=NC1c1cccs1 (centres undefined) | 18 | 0.32 µg/mL (≈ 0.943 µM) | 0.241 | 1.1 µM | 37 |
| CNC1=Nc2ncccc2C(c2ncco2)=NC1c1cccs1 (centres undefined) | < 5 | 1 µg/mL (≈ 3.09 µM) | 0.257 | 7.7 µM | 19 |
| CNC1=Nc2ncccc2C(c2ccco2)=NC1c1cncs1 (centres undefined) | 22 | 4 µg/mL (≈ 12.4 µM) | 0.391 | 8.6 µM | 32 |
| CNC1=Nc2ncccc2C(C2CCCC2)=NC1c1cccs1 (centres undefined) | 59 | 8 µg/mL (≈ 24.7 µM) | 0.048 | 4.1 µM | > 100 |
| CNC1=Nc2cncnc2C(c2ccccc2)=NC1c1cccs1 (centres undefined) | 36 | 64 µg/mL (≈ 192 µM) | 0.158 | 50 µM | 26 |
| CNC1=Nc2ncccc2C(c2ccco2)=NC1c1ccco1 (centres undefined) | 9 | 8 µg/mL (≈ 26.1 µM) | 0.193 | 18.5 µM | 19 |
| CNC1=Nc2ncccc2C(c2cccs2)=NC1c1cccs1 (centres undefined) | 30 | 0.25 µg/mL (≈ 0.739 µM) | 0.03 | 0.7 µM | > 100 |
| CCNC1=Nc2ccccc2C(c2ccccc2)=NC1c1cccs1 (centres undefined) | 46 | 2 µg/mL (≈ 5.79 µM) | 0.003 | 1.1 µM | > 100 |
